pIC50: −log10 of the molar value.
Tests used:
A549 [1] = assay: Chemo-sensitizing activity against human A549 cells assessed as reversal fold at 1 uM measured after 72 hrs in presence of mitoxantrone by CCK8 assay relative to control; format: functional
NCI/ADR-RES [2] = assay: Chemo-sensitizing activity against ABCB1-overexpressing human NCI/ADR-RES cells assessed as reversal fold at 1 uM measured after 72 hrs in presence of colchicine by CCK8 assay relative to control; format: functional
A549 [3] = assay: Chemo-sensitizing activity against becatecarin-selected ABCG2-overexpressing human A549/Bec150 cells assessed as reversal fold at 5 uM measured after 72 hrs in presence of mitoxantrone by CCK8 assay relative to control; format: functional
NCI-H460 [4] = assay: Chemo-sensitizing activity against mitoxantrone-selected ABCG2-overexpressing human NCI-H460/MX20 cells assessed as reversal fold at 5 uM measured after 72 hrs in presence of topotecan by CCK8 assay relative to control; format: functional
A549 [5] = assay: Chemo-sensitizing activity against human A549 cells assessed as reversal fold at 2 uM measured after 72 hrs in presence of SN-38 by CCK8 assay relative to control; format: functional
KB-V1 = assay: Chemo-sensitizing activity against ABCB1-overexpressing human KB-V1 cells assessed as reversal fold at 2 uM measured after 72 hrs in presence of paclitaxel by CCK8 assay relative to control; format: functional
HEK293 [6] = assay: Chemo-sensitizing activity against ABCB1-overexpressing human HEK293/MDR19 cells assessed as reversal fold at 1 uM measured after 72 hrs in presence of colchicine by CCK8 assay relative to control; format: functional
HEK293 [7] = assay: Chemo-sensitizing activity against human HEK293 cells assessed as reversal fold at 5 uM measured after 72 hrs in presence of paclitaxel by CCK8 assay relative to control; format: functional
NCI-H460 [8] = assay: Chemo-sensitizing activity against human NCI-H460 cells assessed as reversal fold at 5 uM measured after 72 hrs in presence of topotecan by CCK8 assay relative to control; format: functional
KB 3-1 = assay: Chemo-sensitizing activity against human KB 3-1 cells assessed as reversal fold at 5 uM measured after 72 hrs in presence of colchicine by CCK8 assay relative to control; format: functional
HEK293 [9] = assay: Chemo-sensitizing activity against human HEK293 cells assessed as reversal fold at 2 uM measured after 72 hrs in presence of colchicine by CCK8 assay relative to control; format: functional
A549 [10] = assay: Cytotoxicity against becatecarin-selected ABCG2-overexpressing human A549/Bec150 cells assessed as reduction in cell viability measured after 72 hrs by CCK8 assay; format: ADME, cell-based; conditions: A549, 72 h
A549 [11] = assay: Chemo-sensitizing activity against becatecarin-selected ABCG2-overexpressing human A549/Bec150 cells assessed as reversal fold at 1 uM measured after 72 hrs in presence of topotecan by CCK8 assay relative to control; format: functional
A549 [12] = assay: Chemo-sensitizing activity against human A549 cells assessed as reversal fold at 2 uM measured after 72 hrs in presence of mitoxantrone by CCK8 assay relative to control; format: functional
[13] = Cytotoxicity against mitoxantrone-selected ABCG2-overexpressing human NCI-H460/MX20 cells assessed as cell viability at 1 to 5 uM measured after 72 hrs by CCK8 assay; format: ADME, cell-based; conditions: dose 1-5 µM, read-out: Activity
HEK293 [14] = assay: Chemo-sensitizing activity against ABCG2-overexpressing human HEK293 cells assessed as reversal fold at 5 uM measured after 72 hrs in presence of topotecan by CCK8 assay relative to control; format: functional
OVCAR-8 [15] = assay: Chemo-sensitizing activity against human OVCAR-8 cells assessed as reversal fold at 5 uM measured after 72 hrs in presence of vincristine by CCK8 assay relative to control; format: functional
NCI/ADR-RES [16] = assay: Chemo-sensitizing activity against ABCB1-overexpressing human NCI/ADR-RES cells assessed as reversal fold at 5 uM measured after 72 hrs in presence of vincristine by CCK8 assay relative to control; format: functional
ABCG2 = assay: Resistance factor, ratio of IC50 for ABCG2-overexpressing human HEK293/482R cells to IC50 for human HEK293 cells; format: ADME; conditions: read-out: Ratio IC50
OVCAR-8 [17] = assay: Chemo-sensitizing activity against human OVCAR-8 cells assessed as reversal fold at 5 uM measured after 72 hrs in presence of paclitaxel by CCK8 assay relative to control; format: functional

Structure (SMILES): C=C(C)[C@H](CC=C(C)C)Cc1c(O)cc(O)c2c1O[C@H](c1ccc(O)cc1O)CC2=O [SOPHORAFLAVANONE G]
- fold change (FC) (A549 [1]): 1.2
- fold change (FC) (NCI/ADR-RES [2]): 0.9
- fold change (FC) (A549 [3]): 9.1
- fold change (FC) (NCI-H460 [4]): 7.8
- fold change (FC) (A549 [5]): 1.1
- fold change (FC) (KB-V1): 1.2
- fold change (FC) (HEK293 [6]): 0.8
- fold change (FC) (HEK293 [7]): 1.2
- fold change (FC) (NCI-H460 [8]): 3
- fold change (FC) (KB 3-1): 1.1
- fold change (FC) (HEK293 [9]): 0.9
- pIC50 (A549 [10]): 4.67
- fold change (FC) (A549 [11]): 1.7
- fold change (FC) (A549 [12]): 1.6
- viability at 72 h, 5 µM [13]: > 90%
- fold change (FC) (HEK293 [14]): 5
- fold change (FC) (OVCAR-8 [15]): 1.7
- fold change (FC) (NCI/ADR-RES [16]): 1.1
- selectivity ratio (ABCG2): 1.4
- fold change (FC) (OVCAR-8 [17]): 1.1
